# From patent publication US20150065421A1, “BASAL INSULIN THERAPY” (SANOFI, priority 2012, published 2015)
# How the values were obtained:
# Format in all cases: in vivo, human
# [1] = test system: participants without diabetes at randomization (IFG and/or IGT); assay: ORIGIN trial: new type 2 diabetes in participants without baseline diabetes (oral glucose tolerance tests)
# From the text: (§1) Participants were asked to self-administer daily subcutaneous saline injections and to check their capillary glucose levels during a 10 day run-in period. Adherent participants were then provided with lifestyle advice and randomly allocated to either insulin glargine (Lantus™) or standard approaches to glycaemic control. Participants allocated to insulin glargine who were also taking a thiazolidinedione stopped that medication at the time of randomization; otherwise the insulin glargine was added to their glycemic regimen. These participants were instructed to inject insulin glargine in the evening, starting at 2, 4 or 6 units (depending on their initial FPG) and to increase the dose at least once per week targeting a self-measured FPG level ≦5.3 mmol/l (95 mg/dl) and ≧4 mmol/l (72 mg/dl). […] If participants developed uncontrolled hyperglycemia, investigators were permitted to add rapid-acting insulin. No other glucose-lowering medication could be added or increased. FPG levels were measured in the local laboratory at every visit and the results were regularly reviewed along with the dose of insulin to ensure that insulin was being effectively trirated. People not diagnosed with diabetes by the time of the penultimate study visit down-titrated insulin glargine by 10 units per day and stopped any metformin that was prescribed.
# There were 2 co-primary composite CV outcomes. The first was CV death, non-fatal MI or non-fatal stroke, and the second was a composite of any of these events or a revascularization procedure or hospitalization for heart failure. Secondary outcomes included a composite microvascular outcome comprising a doubling of serum creatinine from baseline, progression of albuminuria category from normoalbuminuria or microalbuminuria to microalbuminuria or overt nephropathy, renal replacement therapy, renal death, retinal photocoagulation or vitrectomy for retinopathy. They also included new type 2 diabetes developing by the time of the 1st post-trial oral glucose tolerance test in participants without baseline diabetes, and all-cause mortality. Other outcomes included incident cancers, CV hospitalizations, and angina. Cardiovascular and cancer outcomes were reviewed by adjudicators masked to treatment allocation. Episodes of hypoglycaemia since the prior visit were recorded at each visit. Symptomatic hypoglycemia was classified as confirmed if a concomitant recorded capillary glucose level was <3 mmol/L (54 mg/dL). Severe hypoglycemia was defined as hypoglycemia that required assistance plus either prompt recovery with glucose or glucagon or a documented capillary glucose ≦2.0 (36 mg/dL). New diabetes was diagnosed if 2 consecutive FPG levels within a 4-month period were ≧7 mM (126 mg/dL) during the trial; a diagnosis of diabetes was made by a physician and a pharmacologic antidiabetic agent was being taken and there was evidence of either a FPG ≧7 mM (126 mg/dL) or any glucose value ≧11.1 mM (200 mg/dL); either 1 or more capillary glucose levels were ≧11.1 mM (200 mg/dl) and a lab-measured FPG was ≧7 mmol/l (126 mg/dl) or a lab measured random glucose level was ≧11.1 mM (200 mg/dl) during down-titration of glargine insulin; or any FPG was ≧7 mM (126 mg/dl) or 2 hour plasma glucose was ≧11.1 mM (200 mg/dl) during the first oral glucose tolerance test.
# Data were analyzed using SAS (version 9.1 for Solarus) according to an intention-to-treat approach described in the protocol and a predefined statistical analysis plan. […] Baseline characteristics were summarized using means and standard deviatons, medians and interquartile ranges, or counts and percentages as appropriate. Time-to-event curves were constructed using product limit estimation and compared using stratified log-rank tests. Hazard ratios for each outcome were calculated using Cox regression models adjusted for the factorial allocation, baseline diabetes status and a history of a prior CV event before randomization as described in the protocol. […]
# [2] = test system: people at high risk for vascular disease with either IFG, IGT, or early type 2 diabetes; assay: ORIGIN trial: cardiovascular, mortality and cancer outcomes
# From the text: The ORIGIN study was an international, multicenter, randomized, open-label (for insulin glargine versus standard care), double-blind (for omega-3 PUFA versus placebo), 2×2 factorial design study to evaluate whether patients with IGT, IFG, or early T2DM, who were at high risk for macrovascular events, could be safely treated with insulin glargine and omega-3 PUFA, and if either insulin glargine-mediated normoglycemia and/or omega-3 PUFA reduce or prevent CV morbidity and/or mortality. Patients were randomized to either receive insulin glargine treatment as a titrated regimen which targeted fasting plasma glucose (FPG) of 95 mg/dL or standard care according to current guidelines for dysglycemia accompanied by appropriate lifestyle modifications. Patients were also independently randomized to receive either ethyl esters of omega-3 PUFA or matching placebo.
# Patients were to be randomly assigned to receive either insulin glargine treatment or standard care for their dysglycemia. Patients randomized to the insulin glargine group received Lantus® (insulin glargine 100 U/mL solution) once daily (QD) by subcutaneous (SC) injection in a titrated regimen targeting an FPG of […] (5.3 mmol/L). Nondiabetic patients randomized to standard care were followed for the development of diabetes, and were encouraged to continue to modify diet and physical activity levels. Blood glucose management of diabetic patients (or nondiabetic patients who developed diabetes during the study) randomized to standard care was to be performed according to current (at that time) guidelines. All patients were to be encouraged to appropriately modify their lifestyle.
# ORIGIN was an international randomized factorial trial of the effect of titrated basal insulin therapy versus standard care and of omega 3 fasty acid supplements versus placebo on incident CV outcomes. Results of the omega 3 fatty acid arm are reported separately (REF). […] The HbA1c level of people with prior diabetes had to be low enough to minimize the likelihood that insulin would be needed to maintain glycemic control during follow-up if allocated to standard care. Key exclusion criteria included unwillingess or an inability to inject insulin or do capillary glucose testing, a clear indication for, or intolerance to insulin or omega 3 fatty acids, unwillingness to stop thiazolidinediones if allocated to glargine, heart failure, or coronary artery bypass surgery within the prior 4 years with no intervening CV event. The study was approved by each site's ethics committee and all participants provided written informed consent.
# as §1
# There were 2 co-primary composite CV outcomes. […]
# [3] = test system: people at high risk for vascular disease with either IFG, IGT, or early type 2 diabetes; assay: ORIGIN trial: blood triglyceride and cholesterol change; conditions: glargine group
# [4] = glargine group, 6-7 years exposure, p=0.02 vs standard care
# [5] = insulin glargine group, median follow-up 6.2 years
# [6] = insulin glargine vs standard care
substance,measurement,setting,value
(Gly A21) Arg (B31) Arg (B32) human insulin [insulin glargine],reduction of incidence of new diabetes including suspected cases,"[1]; confirmed plus suspected, unconfirmed cases",30%
same,OR for protocol-defined new diabetes,"[1]; glargine vs standard care, 95% CI 0.58, 0.92, P=0.007",0.73
same,OR for new diabetes after 2nd OGTT,"[1]; glargine vs standard care, 95% CI 0.64, 1.00, P=0.052",0.80
same,incidence of new diabetes including suspected cases,[1]; insulin glargine group,35%
same,total rate of diabetes after repeated (2nd) OGTT,"[1]; insulin glargine group, median 100 days after insulin was stopped",30%
same,participants developing protocol-defined diabetes,"[1]; insulin glargine group, up to 1st post-trial OGTT",25%
same,less likely to develop protocol-defined diabetes than standard care participants,[1]; up to 1st post-trial OGTT,27%
same,patients who developed a new angina (number),[2]; [4],100 patients
same,patients who developed a new angina (percent),[2]; [4],1.6%
same,"incidence of the composite outcome of nonfatal MI, nonfatal stroke or CV death (first co-primary outcome)",[2]; [5],2.94 /100 person-years
same,incidence of the second co-primary outcome (first plus revascularization or heart failure hospitalization),[2]; [5],5.53 /100 person-years
same,"incidence of any cancer or cancer death, difference to standard care",[2]; [6],no difference
same,"mortality, difference to standard care",[2]; [6],no statistically significant difference
same,"adjusted HR, first co-primary outcome","[2]; insulin glargine vs standard care, 95% CI 0.88, 1.12, P=0.9",0.99
same,"adjusted HR, second co-primary outcome","[2]; insulin glargine vs standard care, 95% CI 0.91, 1.10, P=0.99",1.00
same,change of triglyceride concentration in the blood,[3]; P<0.001 vs standard care,−0.21 (0.03)
same,Total cholesterol change from baseline to end-of-study,[3]; p 0.044 vs standard care,-0.41 mmol/L
